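Each compound was tested at five concentrations against cells in 96-well plates for 48 hours. At the GI50, growth is halved.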 Activity calls are given as the source filed them. No stated cut-off is given here; in the data, active = GI50 up to about 1.1 µM and inactive = higher.
Tests used:
Experiment in all cases: DTP human tumour cell line panel, 48 h
UO-31 = system: UO-31
OVCAR-5 = system: OVCAR-5
NCI-H226 = system: NCI-H226
MDA-MB-231 = system: MDA-MB-231
MDA-MB-435 = system: MDA-MB-435
UACC-62 = system: UACC-62
PC-3 = system: PC-3
LOX IMVI = system: LOX IMVI
SF-295 = system: SF-295
M14 = system: M14
MDA-N = system: MDA-N
SK-OV-3 = system: SK-OV-3
RXF 393 = system: RXF 393
OVCAR-4 = system: OVCAR-4
DU-145 = system: DU-145
SK-MEL-28 = system: SK-MEL-28
NCI-H23 = system: NCI-H23
HL-60 = system: HL-60
NCI/ADR-RES = system: NCI/ADR-RES
A549 = system: A549
SK-MEL-2 = system: SK-MEL-2
MOLT-4 = system: MOLT-4
SK-MEL-5 = system: SK-MEL-5
NCI-H460 = system: NCI-H460
OVCAR-8 = system: OVCAR-8
TK-10 = system: TK-10
CCRF-CEM = system: CCRF-CEM
SF-539 = system: SF-539
K562 = system: K562
SNB-19 = system: SNB-19
HCT-15 = system: HCT-15
CAKI-1 = system: CAKI-1
KM12 = system: KM12
HOP-92 = system: HOP-92
OVCAR-3 = system: OVCAR-3
MCF7 = system: MCF7
HT-29 = system: HT-29
SW-620 = system: SW-620
EKVX = system: EKVX
UACC-257 = system: UACC-257
ACHN = system: ACHN
COLO 205 = system: COLO 205
HOP-62 = system: HOP-62
U-251 = system: U-251
IGROV-1 = system: IGROV-1
RPMI-8226 = system: RPMI-8226
SNB-75 = system: SNB-75
SR = system: SR
HCC 2998 = system: HCC 2998
T47D = system: T47D
A498 = system: A498
Hs-578T = system: Hs-578T
SN12C = system: SN12C
786-0 = system: 786-0
SF-268 = system: SF-268
HCT-116 = system: HCT-116
Malme-3M = system: Malme-3M

## CCOC(=O)c1csc(NC(=O)CCN2CCCC2)n1
UO-31
  GI50: > 100 µM (inactive)
OVCAR-5
  GI50: > 100 µM (inactive)
NCI-H226
  GI50: > 100 µM (inactive)
MDA-MB-231
  GI50: > 100 µM (inactive)
MDA-MB-435
  GI50: > 100 µM (inactive)
UACC-62
  GI50: > 100 µM (inactive)
PC-3
  GI50: > 100 µM (inactive)
LOX IMVI
  GI50: > 100 µM (inactive)
SF-295
  GI50: > 100 µM (inactive)
M14
  GI50: > 100 µM (inactive)
MDA-N
  GI50: > 100 µM (inactive)
SK-OV-3
  GI50: > 100 µM (inactive)
RXF 393
  GI50: > 100 µM (inactive)
OVCAR-4
  GI50: > 100 µM (inactive)
DU-145
  GI50: > 100 µM (inactive)
SK-MEL-28
  GI50: > 100 µM (inactive)
NCI-H23
  GI50: > 100 µM (inactive)
HL-60
  GI50: > 100 µM (inactive)
NCI/ADR-RES
  GI50: > 100 µM (inactive)
A549
  GI50: > 100 µM (inactive)
SK-MEL-2
  GI50: > 100 µM (inactive)
MOLT-4
  GI50: > 100 µM (inactive)
SK-MEL-5
  GI50: > 100 µM (inactive)
NCI-H460
  GI50: > 100 µM (inactive)
OVCAR-8
  GI50: > 100 µM (inactive)
TK-10
  GI50: > 100 µM (inactive)
CCRF-CEM
  GI50: > 100 µM (inactive)
SF-539
  GI50: > 100 µM (inactive)
K562
  GI50: > 100 µM (inactive)
SNB-19
  GI50: > 100 µM (inactive)
HCT-15
  GI50: > 100 µM
CAKI-1
  GI50: > 100 µM (inactive)
KM12
  GI50: > 100 µM (inactive)
HOP-92
  GI50: > 100 µM (inactive)
OVCAR-3
  GI50: > 100 µM (inactive)
MCF7
  GI50: > 100 µM (inactive)
HT-29
  GI50: > 100 µM (inactive)
SW-620
  GI50: > 100 µM (inactive)
EKVX
  GI50: > 100 µM (inactive)
UACC-257
  GI50: > 100 µM (inactive)
ACHN
  GI50: > 100 µM (inactive)
COLO 205
  GI50: > 100 µM (inactive)
HOP-62
  GI50: > 100 µM (inactive)
U-251
  GI50: > 100 µM (inactive)
IGROV-1
  GI50: > 100 µM (inactive)
RPMI-8226
  GI50: 86.7 µM (inactive)
SNB-75
  GI50: > 100 µM (inactive)
SR
  GI50: 78.5 µM (inactive)
HCC 2998
  GI50: > 100 µM (inactive)
T47D
  GI50: > 100 µM (inactive)

## CC1CC/C(=C\c2ccc(F)cc2)C2=C1C(c1ccc(F)cc1)n1c(s/c(=C/c3cccc(Br)c3)c1=O)=N2 (stereo not drawn)
A498
  GI50: > 100 µM (inactive)
OVCAR-5
  GI50: > 100 µM (inactive)
MDA-MB-231
  GI50: > 100 µM (inactive)
MDA-MB-435
  GI50: > 100 µM (inactive)
UACC-62
  GI50: > 100 µM (inactive)
PC-3
  GI50: > 100 µM (inactive)
Hs-578T
  GI50: > 100 µM (inactive)
LOX IMVI
  GI50: > 100 µM (inactive)
M14
  GI50: > 100 µM (inactive)
SN12C
  GI50: > 100 µM (inactive)
MDA-N
  GI50: > 100 µM (inactive)
SK-OV-3
  GI50: > 100 µM (inactive)
RXF 393
  GI50: > 100 µM (inactive)
DU-145
  GI50: > 100 µM (inactive)
SK-MEL-28
  GI50: > 100 µM (inactive)
HL-60
  GI50: > 100 µM (inactive)
786-0
  GI50: > 100 µM (inactive)
A549
  GI50: > 100 µM (inactive)
SK-MEL-2
  GI50: > 100 µM (inactive)
MOLT-4
  GI50: > 100 µM (inactive)
SK-MEL-5
  GI50: > 100 µM (inactive)
OVCAR-8
  GI50: > 100 µM (inactive)
TK-10
  GI50: > 100 µM (inactive)
CCRF-CEM
  GI50: > 100 µM (inactive)
K562
  GI50: > 100 µM (inactive)
SNB-19
  GI50: > 100 µM (inactive)
HCT-15
  GI50: > 100 µM
CAKI-1
  GI50: > 100 µM (inactive)
KM12
  GI50: > 100 µM (inactive)
HOP-92
  GI50: > 100 µM (inactive)
MCF7
  GI50: > 100 µM (inactive)
HT-29
  GI50: > 100 µM (inactive)
SW-620
  GI50: > 100 µM (inactive)
EKVX
  GI50: > 100 µM (inactive)
UACC-257
  GI50: > 100 µM (inactive)
ACHN
  GI50: > 100 µM (inactive)
SF-268
  GI50: > 100 µM (inactive)
HOP-62
  GI50: > 100 µM (inactive)
U-251
  GI50: > 100 µM (inactive)
HCT-116
  GI50: > 100 µM (inactive)
IGROV-1
  GI50: > 100 µM (inactive)
RPMI-8226
  GI50: > 100 µM (inactive)
SNB-75
  GI50: > 100 µM (inactive)
SR
  GI50: > 100 µM (inactive)

## N#Cc1[nH]c(=O)n(-c2ccccc2)c1N
A498
  GI50: > 10 µM (inactive)
UO-31
  GI50: > 10 µM (inactive)
OVCAR-5
  GI50: 0.141 µM (active)
NCI-H226
  GI50: > 10 µM (inactive)
MDA-MB-231
  GI50: > 10 µM (inactive)
MDA-MB-435
  GI50: > 10 µM (inactive)
UACC-62
  GI50: > 10 µM (inactive)
PC-3
  GI50: > 10 µM (inactive)
Hs-578T
  GI50: > 10 µM (inactive)
LOX IMVI
  GI50: 0.0995 µM (active)
SF-295
  GI50: 0.279 µM (active)
M14
  GI50: > 10 µM (inactive)
SN12C
  GI50: > 10 µM (inactive)
MDA-N
  GI50: > 10 µM (inactive)
SK-OV-3
  GI50: > 10 µM (inactive)
RXF 393
  GI50: > 10 µM (inactive)
OVCAR-4
  GI50: > 10 µM (inactive)
DU-145
  GI50: > 10 µM (inactive)
SK-MEL-28
  GI50: > 10 µM (inactive)
NCI-H23
  GI50: > 10 µM (inactive)
HL-60
  GI50: > 10 µM (inactive)
786-0
  GI50: > 10 µM (inactive)
NCI/ADR-RES
  GI50: > 10 µM (inactive)
A549
  GI50: > 10 µM (inactive)
Malme-3M
  GI50: > 10 µM (inactive)
SK-MEL-2
  GI50: > 10 µM (inactive)
MOLT-4
  GI50: > 10 µM (inactive)
SK-MEL-5
  GI50: > 10 µM (inactive)
NCI-H460
  GI50: > 10 µM (inactive)
OVCAR-8
  GI50: > 10 µM (inactive)
TK-10
  GI50: > 10 µM (inactive)
CCRF-CEM
  GI50: > 10 µM (inactive)
SF-539
  GI50: > 10 µM (inactive)
K562
  GI50: > 10 µM (inactive)
SNB-19
  GI50: > 10 µM (inactive)
HCT-15
  GI50: > 10 µM
KM12
  GI50: > 10 µM (inactive)
OVCAR-3
  GI50: > 10 µM (inactive)
HT-29
  GI50: > 10 µM (inactive)
SW-620
  GI50: > 10 µM (inactive)
EKVX
  GI50: > 10 µM (inactive)
UACC-257
  GI50: > 10 µM (inactive)
ACHN
  GI50: > 10 µM (inactive)
COLO 205
  GI50: > 10 µM (inactive)
SF-268
  GI50: > 10 µM (inactive)
HOP-62
  GI50: > 10 µM (inactive)
U-251
  GI50: > 10 µM (inactive)
HCT-116
  GI50: > 10 µM (inactive)
IGROV-1
  GI50: > 10 µM (inactive)
RPMI-8226
  GI50: > 10 µM (inactive)
SNB-75
  GI50: 6.52 µM (inactive)
SR
  GI50: > 10 µM (inactive)
HCC 2998
  GI50: > 10 µM (inactive)
T47D
  GI50: > 10 µM (inactive)

Reference: ChEMBL document CHEMBL1201862, “PubChem BioAssay data set” (2004)
